How the values were obtained:
Format in all cases: cell-based
MDA-MB-231 = assay: Cell growth inhibition assay, breast cancer cell line MDA-MB-231; settings: Homo sapiens; MDA-MB-231 breast cancer cell line, 5,000 cells/well
Experimental: The inhibitory effects of the compounds of the present invention against the growth of cancer cells were evaluated as shown below. The cancer cell lines including stomach cancer cell line (AGS), breast cancer cell lines (MDA-MB-231, MDA-MB-468, and BT-549), prostate cancer cell lines (LNCaP and DU-145), colon cancer cell line (HCT116), ovarian cancer cell line (SW626), liver cancer cell line (Hep3B), kidney cancer cell line (ACHN), lung cancer cell line (NCI-H23) and blood cancer cell lines (HEL92.1.7 and U266) were cultured under the protocol provided by each supplier. A medium supplemented with 10 ng/mL of IL-6 was used for LNCaP, a prostate cancer cell line, when treated with a drug. Each type of cells to be used in experiments were sub-cultured in a 96-well plate by counting the exact number of cells using Tali™ Image-based Cytometer (Life Technologies). In a 96-well plate, AGS, HCT116, and DU-145 were employed with 3,000 cells/well; NCI-H23, SW626, Hep3B, ACHN, BT-549, MDA-MB-231, HEL92.1.7, and U266 were employed with 5,000 cells/well; and LNCaP and MDA-MB-468 were employed with 10,000 cells/well. The cells were treated with the compounds listed in Examples which were diluted in various concentrations. Upon completion of the compounds treatment, AGS, HCT116, SW626, DU145, NCI-H23, Hep3B, ACHN, BT-549, LNCaP, HEL92.1.7, and U266 cells were cultured at 37° C. under 5% CO2 for from 72 to 96 hours, and MDA-MB-231 and MDA-MB-468 cells were cultured at 37° C. in air for from 72 to 96 hours. Subsequently, the cells were observed under microscope and drug precipitation and particular findings were investigated and recorded. And then, the 96-well plate was placed at room temperature for 30 minutes, added with 20 μL/well of CellTiter-Glo solution (Cat No. G7573, Promega) and shaken for 10 minutes, followed by being subjected to the measurement using PHERAstar™ microplate reader (BMG LABTECH) according to the supplier's general luminometer protocol. Wells where only culture liquid added without cell plating were used as a negative control, whereas wells where culture liquid containing 0.1% DMSO instead of the compounds listed in Examples were used as a positive control.

LNCaP = assay: Cell growth inhibition assay, prostate cancer cell line LNCaP (medium with 10 ng/mL IL-6); settings: Homo sapiens, medium supplemented with 10 ng/mL of IL-6, 10,000 cells/well
STAT3 = target: T1, STAT3 (Homo sapiens, UniProt P40763); assay: STAT3 reporter gene assay (luciferase), LNCaP stable cell line (pSTAT3-TA-luc), IL-6 stimulation
T1 construct: plasmid pSTAT3-TA-luc), which contains a stably operating STAT3 promoter; endogenous in cells
Procedure, shortened: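 Cytotoxicity was run on a duplicate plate with CellTiter-Glo, while the other plate gave luciferase read-outs from lysed LNCaP pSTAT3-TA-luc reporter cells. Cells were treated with graded compound concentrations plus IL-6 (10 ng/mL final) for 24–48 h in 3% DCC-FBS medium. Unstimulated and stimulated wells served as negative and positive controls.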

T1 sequence (P40763 whole entry): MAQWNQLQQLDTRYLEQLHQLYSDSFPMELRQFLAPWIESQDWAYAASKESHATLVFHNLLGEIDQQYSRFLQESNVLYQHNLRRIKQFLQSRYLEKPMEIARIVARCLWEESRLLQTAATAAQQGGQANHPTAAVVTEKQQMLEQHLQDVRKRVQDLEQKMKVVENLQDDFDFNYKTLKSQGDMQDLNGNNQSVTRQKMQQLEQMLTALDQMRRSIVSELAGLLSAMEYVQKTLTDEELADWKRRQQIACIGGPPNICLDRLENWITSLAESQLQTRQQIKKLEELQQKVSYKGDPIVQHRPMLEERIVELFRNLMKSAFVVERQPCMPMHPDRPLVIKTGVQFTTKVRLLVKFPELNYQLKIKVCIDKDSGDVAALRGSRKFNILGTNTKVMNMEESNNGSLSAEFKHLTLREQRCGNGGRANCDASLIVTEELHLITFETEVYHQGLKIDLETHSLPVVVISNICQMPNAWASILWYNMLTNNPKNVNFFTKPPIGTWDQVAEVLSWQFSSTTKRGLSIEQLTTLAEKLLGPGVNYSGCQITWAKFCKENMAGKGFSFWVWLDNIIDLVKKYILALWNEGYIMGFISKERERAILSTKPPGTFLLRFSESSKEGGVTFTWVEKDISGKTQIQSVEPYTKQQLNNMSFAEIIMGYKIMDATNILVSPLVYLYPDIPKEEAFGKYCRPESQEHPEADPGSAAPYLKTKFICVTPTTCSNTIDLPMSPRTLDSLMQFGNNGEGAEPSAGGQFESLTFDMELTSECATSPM

SMILES | IC50 (MDA-MB-231) [µM] | IC50 (LNCaP) [µM] | IC50 (STAT3) [µM]
CS(=O)(=O)Nc1ccc2cc(C(=O)Nc3cc(-c4ccc(F)cc4F)cc(N4CCOCC4)c3)[nH]c2c1 [Example 374, N-(2′,4′-difluoro-5-morpholino-[1,1′-biphenyl]-3-yl)-6-(methylsulfonamido)-1H-indole-2-carboxamide] | 2.7 | 9.9 | 6.4
COc1cc(NS(C)(=O)=O)cc2cc(C(=O)Nc3cccc(C(C)(C)c4ccc(F)cc4)c3)oc12 [Example 113, N-(3-(2-(4-fluorophenyl)propan-2-yl)phenyl)-7-methoxy-5-(methylsulfonamido)benzofuran-2-carboxamide] | 6.4 | > 10 | 8.9
CN(C)c1cc(NC(=O)c2cc3cc(NS(C)(=O)=O)ccc3s2)cc(-c2ccc(F)cc2F)c1 [Example 375, N-(5-(dimethylamino)-2′,4′-difluoro-[1,1′-biphenyl]-3-yl)-5-(methylsulfonamido)benzo[b]thiophene-2-carboxamide] | 0.028 | 1.1 | 0.14
CS(=O)(=O)Nc1ccc2cc(C(=O)Nc3cc(OC(F)F)cc(-c4ccc(F)cc4F)c3)[nH]c2c1 [Example 369, N-(5-(difluoromethoxy)-2′,4′-difluoro-[1,1′-biphenyl]-3-yl)-6-(methylsulfonamido)-1H-indole-2-carboxamide] | 0.28 | 3.8 | 0.7
CS(=O)(=O)Nc1ccc2c(Cl)c(C(=O)Nc3cccc(-c4ccc(F)cc4F)c3)sc2c1 [Example 111, 3-chloro-N-(2′,4′-difluoro-[1,1′-biphenyl]-3-yl)-6-(methylsulfonamido)benzo[b]thiophene-2-carboxamide] | 6.3 | > 10 | > 10
CS(=O)(=O)Nc1ccc2cc(C(=O)Nc3cccc(S(=O)(=O)c4cc(O)cc(C#N)c4)c3)[nH]c2c1 [Example 417, N-(3-((3-cyano-5-hydroxyphenyl)sulfonyl)phenyl)-6-(methylsulfonamido)-1H-indole-2-carboxamide] | > 10 | > 10 | > 10
COc1cc2cc(C(=O)Nc3cccc(C(C)(C)c4ccc(F)cc4)c3)[nH]c2cc1NS(C)(=O)=O [Example 3, N-(3-(2-(4-fluorophenyl)propan-2-yl)phenyl)-5-methoxy-6-(methylsulfonamido)-1H-indole-2-carboxamide] | 0.09 | 1.1 | 0.22
CN(C)c1cc(NC(=O)c2cc3cc(NS(C)(=O)=O)ccc3o2)cc(-c2ccc(F)cc2F)c1 [Example 376, N-(5-(dimethylamino)-2′,4′-difluoro-[1,1′-biphenyl]-3-yl)-5-(methylsulfonamido)benzofuran-2-carboxamide] | 1.3 | 7.7 | 5.2
CS(=O)(=O)Nc1ccc2cc(C(=O)Nc3cc(CC#N)cc(-c4ccc(F)cc4F)c3)[nH]c2c1 [Example 363, N-(5-(cyanomethyl)-2′,4′-difluoro-[1,1′-biphenyl]-3-yl)-6-(methylsulfonamido)-1H-indole-2-carboxamide] | 0.88 | 2.4 | 1.3
CS(=O)(=O)Nc1ccc2cc(C(=O)Nc3cc(F)cc(-c4ccc(F)cc4F)c3)[nH]c2c1 [Example 312, 6-(methylsulfonamido)-N-(2′,4′,5-trifluoro-[1,1′-biphenyl]-3-yl)-1H-indole-2-carboxamide] | 0.22 | 1.3 | 0.24
Cc1c(C(=O)Nc2cccc(-c3ccc(F)cc3F)c2)sc2ccc(NS(C)(=O)=O)cc12 [Example 243, N-(2′,4′-difluoro-[1,1′-biphenyl]-3-yl)-3-methyl-5-(methylsulfonamido)benzo[b]thiophene-2-carboxamide] | 1.6 | 6.4 | 7.2
CS(=O)(=O)Nc1ccc2cc(C(=O)Nc3cc(-c4cnc(N)nc4)cc(-c4ccc(F)cc4F)c3)[nH]c2c1 [Example 361, N-(5-(2-aminopyrimidin-5-yl)-2′,4′-difluoro-[1,1′-biphenyl]-3-yl)-6-(methylsulfonamido)-1H-indole-2-carboxamide] | > 10 | > 10 | > 10
CS(=O)(=O)c1ccc2cc(C(=O)Nc3cccc(-c4ccc(F)cc4F)c3)[nH]c2c1 [Example 240, N-(2′,4′-difluoro-[1,1′-biphenyl]-3-yl)-6-(methylsulfonyl)-1H-indole-2-carboxamide] | > 10 | > 10 | > 10
CC(C)(c1ccc(F)cc1)c1cc(Cl)cc(NC(=O)c2cc3cc(NS(C)(=O)=O)ccc3s2)c1 [Example 40, N-(3-chloro-5-(2-(4-fluorophenyl)propan-2-yl)phenyl)-5-(methylsulfonamido)benzo[b]thiophene-2-carboxamide] | 0.006 | 0.37 | 0.076
COc1ccc(-c2cc(NC(=O)c3cc4ccc(NS(C)(=O)=O)cc4[nH]3)cc(-c3ccc(F)cc3F)c2)cn1 [Example 382, N-(2′,4′-difluoro-5-(6-methoxypyridin-3-yl)-[1,1′-biphenyl]-3-yl)-6-(methylsulfonamido)-1H-indole-2-carboxamide] | 0.91 | 3.8 | 0.33
COc1cc(NC(=O)c2cc3cc(NS(C)(=O)=O)ccc3s2)cc(-c2ccc(F)cc2F)c1 [Example 317, N-(2′,4′-difluoro-5-methoxy-[1,1′-biphenyl]-3-yl)-5-(methylsulfonamido)benzo[b]thiophene-2-carboxamide] | 0.019 | 0.37 | 0.28
CN(C)C(=O)c1cc(NC(=O)c2cc3ccc(NS(C)(=O)=O)cc3[nH]2)cc(-c2ccc(F)cc2F)c1 [Example 319, N-(5-(dimethylcarbamoyl)-2′,4′-difluoro-[1,1′-biphenyl]-3-yl)-6-(methylsulfonamido)-1H-indole-2-carboxamide] | > 10 | > 10 | > 10
C#Cc1cc(NC(=O)c2cc3ccc(NS(C)(=O)=O)cc3[nH]2)cc(C(C)(C)c2ccc(F)cc2)c1 [Example 107, N-(3-ethynyl-5-(2-(4-fluorophenyl)propan-2-yl)phenyl)-6-(methylsulfonamido)-1H-indole-2-carboxamide] | 0.29 | 1.2 | 0.42
CS(=O)(=O)Nc1ccc2cc(C(=O)Nc3cc(Br)cc(-c4ccc(F)cc4F)c3)sc2c1 [Example 310, N-(5-bromo-2′,4′-difluoro-[1,1′-biphenyl]-3-yl)-6-(methylsulfonamido)benzo[b]thiophene-2-carboxamide] | 0.39 | 3.2 | 0.8
COc1cccc(C(C)(C)c2cccc(NC(=O)c3cc4cc(NS(C)(=O)=O)ccc4s3)c2)c1 [Example 38, N-(3-(2-(3-methoxyphenyl)propan-2-yl)phenyl)-5-(methylsulfonamido)benzo[b]thiophene-2-carboxamide] | 0.049 | 0.8 | 0.1
CC(C)(c1ccc(F)cc1)c1cccc(NC(=O)c2cc3cc(OC(F)(F)F)ccc3[nH]2)c1 [Example 25, N-(3-(2-(4-fluorophenyl)propan-2-yl)phenyl)-5-(trifluoromethoxy)-1H-indole-2-carboxamide] | 3.2 | 4.2 | 3.3
CC(C)(c1cccc(NC(=O)c2cc3ccc(NS(C)(=O)=O)cc3[nH]2)c1)c1ccc(F)cc1F [Example 11, N-(3-(2-(2,4-difluorophenyl)propan-2-yl)phenyl)-6-(methylsulfonamido)-1H-indole-2-carboxamide] | 0.06 | 1.8 | 0.2
COc1cc(NS(C)(=O)=O)cc2cc(C(=O)Nc3cccc(-c4ccc(F)cc4F)c3)oc12 [Example 112, N-(2′,4′-difluoro-[1,1′-biphenyl]-3-yl)-7-methoxy-5-(methylsulfonamido)benzofuran-2-carboxamide] | > 10 | 8.6 | 6.8
O=C(Nc1cc(Br)cc(-c2ccc(F)cc2F)c1)c1cc2cc(OC(F)(F)F)ccc2[nH]1 [Example 308, N-(5-bromo-2′,4′-difluoro-[1,1′-biphenyl]-3-yl)-5-(trifluoromethoxy)-1H-indole-2-carboxamide] | 8.1 | > 10 | 5.6
